Source: patent US12275687B2 (priority 2017, dated 2025)
Where a chain is given by its changes, count along the chain named. Blank lines part the entries; values can stand above or below the compound they belong to.

How the values were obtained:
[1] = target: T1, BLT1 (Cavia porcellus, UniProt H0VYV8); test: Saturation binding assay of ^3H-LTB4 and BLT1 with various concentrations of benzamidine; design: expressed in transfected cells; host or cells: HEK293 (membrane fraction); species or system guinea pig
Protocol: Each point (±s.e.m.) indicates the mean value of three independent experiments, each with triplicate reactions. […] Each point (±s.e.m.) indicates the mean value of three independent experiments, each with triplicate reactions. […] Each point (±s.e.m.) indicates the mean value of triplicate reactions. For the evaluation of the ligand-binding activity of the BLT1 mutants and BLT1-[…], a ^3H-LTB4 binding assay was performed using the BLT1-expressing membrane fractions of COS-7, HEK293, or P. pastoris cells, as described previously (Hori T. et al., 2010, supra; Hori T. et al., 2015, supra). For the evaluation of the thermostability, the membrane fraction was heat-treated before the ^3H-LTB4 binding assay.

[2] = target: T1, BLT1; test: TGFα shedding assay with benzamidine (G-protein activation by LTB4); assay type: cell-based; design: expressed in transfected cells; conditions: for logβ / β: LTB4-induced efficacy modulation by benzamidine
Protocol: Each point (±s.e.m.) indicates the mean value of three independent experiments, each with triplicate reactions. […] Each point (±s.e.m.) indicates the mean value of three independent experiments, each with triplicate reactions. […] Each point (±s.e.m.) indicates the mean value of triplicate reactions. […] To determine the parameters, three steps of fitting procedures were performed.

[3] = target: T2, wild-type BLT1 (Cavia porcellus, UniProt H0VYV8); test: Competition binding assay of benzamidine and NaCl to 0.5 nM ^3H-LTB4 (allosteric modulation titration analysis); design: species or system guinea pig; conditions: for logα / α: cooperative factor between ^3H-LTB4 and the modulator
T2 construct: expressed in transfected cells; host or cells: HEK293 (membrane fraction)
Description: Each point (±s.e.m.) indicates the mean value of three independent experiments, each with triplicate reactions. […] Each point (±s.e.m.) indicates the mean value of three independent experiments, each with triplicate reactions. […] Each point (±s.e.m.) indicates the mean value of triplicate reactions. For the evaluation of the thermostabilities of guinea pig BLT1 mutants designed by the consensus method (FIG. 8A), point mutations were introduced using a QuikChange kit (Agilent) to the previously constructed thermostabilized BLT1 […] deleted, […] mutations, and an N-terminal FLAG-tag) in the pcDNA3 vector (Hori, T. et al., Protein Expr. Purif. 72 (2010) 66-74; Hori, T. et al., Biochem. Biophys. Rep. 4 (2015) 243-249). The expression vectors encoding the BLT1 mutants were transfected into COS-7 cells with Lipofectamine 2000. For the analysis of the BIIL260 binding residues of BLT1, point mutations were introduced, using the In-Fusion enzyme (Clontech), into the wild-type BLT1 cDNA with the N-terminal FLAG-tag in the pcDNA3 vector. The expression vectors were transfected into HEK293 cells, using polyethyleneimine. […] The BLT1 mutants were transiently expressed for three days at 37° C. The cells were washed with PBS, harvested with PBS-EDTA, disrupted with a sonicator, and centrifuged at 800×g for 5 min. The supernatant was further ultra-centrifuged at 100,000×g for 60 min, and the precipitate was collected. For the evaluation of the ligand-binding activity of the BLT1 mutants and BLT1-[…], a ^3H-LTB4 binding assay was performed using the BLT1-expressing membrane fractions of COS-7, HEK293, or P. pastoris cells, as described previously (Hori T. et al., 2010, supra; Hori T. et al., 2015, supra). For the evaluation of the thermostability, the membrane fraction was heat-treated before the ^3H-LTB4 binding assay. […] For all of the pharmacological analyses, nonlinear regression curve fitting was performed using Prism 5 (Graph Pad Software).

[4] = target: BLT1-T4L; test: Competition assay of ligands against ^3H-LTB4, BLT1-T4L expressed in P. pastoris; assay type: binding, guinea pig
Description: For the ligand binding assay of BLT1-T4Ls, the T4L cDNA was integrated into the cDNA, encoding the newly generated thermostable BLT1 mutant with the additional mutation V212A, by the consensus method (residues 1-14 deleted and H83G/K88G/V212A/S309A mutations), with the α-factor PrePro signal sequence and the FLAG tag at the N-terminal, and the PreScission site and the His6 tag at the C-terminal of BLT1 (Hori T. et al., 2010, supra) in the pPIC3.5K vector, using the In-Fusion enzyme (FIG. 7A). The expression vectors were introduced into the yeast Pichia pastoris using an EasyComp kit (Thermo Fisher Scientific). BLT1-T4Ls were expressed in 10 ml cultures, and the membrane fraction was prepared as described previously (Hori T. et al., 2010, supra; Hon T. et al., 2015, supra).
(§1) For the evaluation of the ligand-binding activity of the BLT1 mutants and BLT1-T4Ls, a ^3H-LTB4 binding assay was performed using the BLT1-expressing membrane fractions of COS-7, HEK293, or P. pastoris cells, as described previously (Hori T. et al., 2010, supra; Hori T. et al., 2015, supra). For the evaluation of the thermostability, the membrane fraction was heat-treated before the ^3H-LTB4 binding assay.

[5] = target: T3, BLT1 V69^2.53A mutant (Cavia porcellus, UniProt H0VYV8, V69A); test: Competition binding of BIIL260 to 0.5 nM ^3H-LTB4, BLT1 mutant in HEK293 membrane fraction; design: species or system guinea pig
T3 construct: expressed in transfected cells; host or cells: HEK293 (membrane fraction)
T3 sequence (H0VYV8 1-348 V69A): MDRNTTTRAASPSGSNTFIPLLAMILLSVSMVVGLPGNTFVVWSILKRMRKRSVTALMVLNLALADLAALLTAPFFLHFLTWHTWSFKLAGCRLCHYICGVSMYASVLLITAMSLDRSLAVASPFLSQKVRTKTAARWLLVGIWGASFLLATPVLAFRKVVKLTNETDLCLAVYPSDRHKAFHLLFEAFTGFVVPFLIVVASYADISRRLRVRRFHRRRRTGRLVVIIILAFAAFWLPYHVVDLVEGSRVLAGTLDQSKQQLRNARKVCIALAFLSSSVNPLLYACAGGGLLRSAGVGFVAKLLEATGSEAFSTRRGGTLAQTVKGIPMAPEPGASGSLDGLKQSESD
Description: (§2) (A) Structure of the BIIL260-binding site. BIIL260 and the BLT1 side chains within 4 Å from BIIL260 are represented by stick models, and transmembrane helices are depicted by thin ribbons. Sulfur atoms are colored gold. (B) Schematic representation of the BLT1-BIIL260 interaction. Intermolecular forces such as the salt bridge, hydrogen bonding, π-to-edge, CH-to-π, and hydrophobic interactions are indicated in red, blue, orange, violet, and green, respectively. The three non-identical residues in human BLT1 and BLT2, a cognate receptor of BLT1, are highlighted in green shaded boxes, and the corresponding residues of human BLT1 and BLT2 (hBLT1 and hBLT2, respectively) are also presented. (C) Competition binding assays of BIIL260 to 0.5 nM ^3H-LTB4, using the membrane fractions of HEK293 cells expressing the mutant and wild-type BLT1s. The mutations were introduced at the residues involved in the specific BIIL260 binding. Each point (±s.e.m.) indicates the mean value of two independent experiments, each with triplicate reactions. NS is non-specific binding measured with 0.5 μM LTB4.
(§3) For the evaluation of the thermostabilities of guinea pig BLT1 mutants designed by the consensus method (FIG. 8A), point mutations were introduced using a QuikChange kit (Agilent) to the previously constructed thermostabilized BLT1 mutant cDNA (residues 1-14 deleted, H83G/K88G/S309A mutations, and an N-terminal FLAG-tag) in the pcDNA3 vector (Hori, T. et al., Protein Expr. Purif. 72 (2010) 66-74; Hori, T. et al., Biochem. Biophys. Rep. 4 (2015) 243-249). The expression vectors encoding the BLT1 mutants were transfected into COS-7 cells with Lipofectamine 2000. For the analysis of the BIIL260 binding residues of BLT1, point mutations were introduced, using the In-Fusion enzyme (Clontech), into the wild-type BLT1 cDNA with the N-terminal FLAG-tag in the pcDNA3 vector. The expression vectors were transfected into HEK293 cells, using polyethyleneimine. […] The BLT1 mutants were transiently expressed for three days at 37° C. The cells were washed with PBS, harvested with PBS-EDTA, disrupted with a sonicator, and centrifuged at 800×g for 5 min. The supernatant was further ultra-centrifuged at 100,000×g for 60 min, and the precipitate was collected.
as §1

[6] = target: T4, BLT1 S106^3.39A mutant (Cavia porcellus, UniProt H0VYV8, S106A); test: as above; design: species or system guinea pig
T4 construct: expressed in transfected cells; host or cells: HEK293 (membrane fraction)
Description: as §2, §3, §1

[7] = target: T5, BLT1 S276^7.45A mutant (Cavia porcellus, UniProt H0VYV8, S276A); test: as above; design: species or system guinea pig
T5 construct: expressed in transfected cells; host or cells: HEK293 (membrane fraction)
Description: as §2, §3, §1

[8] = target: T6, BLT1 L80^2.64A mutant (Cavia porcellus, UniProt H0VYV8, L80A); test: as above; design: species or system guinea pig
T6 construct: expressed in transfected cells; host or cells: HEK293 (membrane fraction)
Description: as §2, §3, §1

[9] = target: T7, BLT1 D66^2.50A mutant (Cavia porcellus, UniProt H0VYV8, D66A); test: as above; design: species or system guinea pig
T7 construct: expressed in transfected cells; host or cells: HEK293 (membrane fraction)
T7 sequence (H0VYV8 1-348 D66A): T3 sequence (H0VYV8 1-348 V69A) with D66A, A69V
Description: as §2, §3, §1

[10] = target: T8, BLT1 W236^6.48A mutant (Cavia porcellus, UniProt H0VYV8, W236A); test: as above; design: species or system guinea pig
T8 construct: expressed in transfected cells; host or cells: HEK293 (membrane fraction)
Description: as §2, §3, §1

[11] = target: T2, wild-type BLT1; test: Competition binding of BIIL260 to 0.5 nM ^3H-LTB4, wild-type BLT1 in HEK293 membrane fraction; design: species or system guinea pig; conditions: WT
Description: as §2, with “LTB4. […]” for “LTB4.”

[12] = saturation binding, global fitting

T2 sequence (H0VYV8 1-348): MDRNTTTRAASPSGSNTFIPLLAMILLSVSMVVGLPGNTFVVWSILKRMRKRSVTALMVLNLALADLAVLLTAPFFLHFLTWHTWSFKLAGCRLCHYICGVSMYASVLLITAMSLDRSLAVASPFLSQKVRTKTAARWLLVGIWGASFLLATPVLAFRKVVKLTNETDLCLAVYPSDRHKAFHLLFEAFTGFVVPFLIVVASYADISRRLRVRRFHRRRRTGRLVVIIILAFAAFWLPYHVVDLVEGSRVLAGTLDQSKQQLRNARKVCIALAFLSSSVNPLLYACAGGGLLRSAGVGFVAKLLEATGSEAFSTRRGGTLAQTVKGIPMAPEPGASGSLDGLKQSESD
T1 sequence (H0VYV8 1-348): as above
T5 sequence (H0VYV8 1-348 S276A): as the sequence (H0VYV8 1-348) above, with S276A counted along it
T4 sequence (H0VYV8 1-348 S106A): as the sequence (H0VYV8 1-348) above, with S106A counted along it
T8 sequence (H0VYV8 1-348 W236A): as the sequence (H0VYV8 1-348) above, with W236A counted along it
T6 sequence (H0VYV8 1-348 L80A): as the sequence (H0VYV8 1-348) above, with L80A counted along it

binding affinity of LTB4 toward BLT1 ([1]; FIG. 3B): lowered
logα [1, 12]: −0.93
α [1, 12]: (α = 0.12)
BLT1-LTB4-mediated Gq/il and G16 activation ([2]; FIGS. 3C and 3D): decreased
logα ([2]; G16): −0.45
α ([2]; G16): (α = 0.36)
logβ ([2]; G16): −1.6
β ([2]; G16): (β = 0.03)
logα ([2]; Gq/i1): 0.00
α ([2]; Gq/i1): (α = 1.00)
logβ ([2]; Gq/i1): −1.9
β ([2]; Gq/i1): (β = 0.01)
cooperative factor of the LTB4-induced efficacy modulation (β) ([2]; as a whole): < 1
cooperative factor of the binding of LTB4 to BLT1 (α) ([2]; as a whole (binding and shedding assays)): ≤ 1
logα [3]: −0.82
α [3]: (α = 0.15)
SMILES: N=C(N)c1ccccc1 [Benzamidine, benzamidine]
level of the LTB4-BLT1 binding ([3]; FIG. 3A): decreased the level of the LTB4-BLT1 binding in a benzamidine concentration-dependent manner
suppression of the BLT1-LTB4 binding compared with the sodium ion ([3]; FIG. 3A): more potently than the sodium ion, by one order of magnitude

SMILES: [Cl-].[Na+] [NaCl]
level of the LTB4-BLT1 binding ([3]; FIG. 3A): decreased in a sodium ion concentration-dependent manner
logα [3]: −1.5
α [3]: (α = 0.035)

Ki [4]: 2.3 nM
IC50 [5]: 33 nM
logIC50 ([5]; log value (negative)): −7.5
IC50 [6]: 12 nM
logIC50 ([6]; log value (negative)): −7.9
IC50 ([7]; S276^7.45A): 124 nM
BIIL260-binding ability ([7]; S276^7.45A mutation): decreased
logIC50 ([7]; S276^7.45A, log value (negative)): −6.9
IC50 [8]: 12 nM
logIC50 ([8]; log value (negative)): −7.9
logIC50 (IC50) ([9]; D66^2.50A): No binding
BIIL260-binding ability ([9]; D66^2.50A mutation): abrogated
IC50 [10]: 62 nM
logIC50 ([10]; log value (negative)): −7.2
IC50 [11]: 30 nM
logIC50 ([11]; log value (negative)): −7.5
SMILES: CC(C)(c1ccc(O)cc1)c1ccc(OCc2cccc(COc3ccc(C(=N)N)cc3)c2)cc1 [BIIL260]
logIC50 ([4]; log value (negative)): −8.5
